Literature values, collected in patent EP0836475B1, “CONTROLLED RELEASE FORMULATIONS FOR POORLY SOLUBLE DRUGS” (ELAN CORPORATION, Plc, priority 1995, dated 1997).

Conditions: ibuprofen from Lutrol-F68

Q: For `CC(C)Cc1ccc(C(C)C(=O)O)cc1` (stereo not shown) [ibuprofen], which “T50 value of in vitro release” value is on record?
A: Its value is “approximately 30 min”.
